Read-outs that look alike come from different tables or passages of the source. Positions of bridges follow the written chain, without caps; N, C: chain ends. Residues, ends and D or L forms follow the SMILES beside them.
How the values were obtained:
Assay type in all cases: binding
FGF-R1C ECD = target: T1, FGF-R1C ECD (Homo sapiens, UniProt P11362); assay: biochemical; design: DNA constructs for the extracellular domain (ECD) of human FGF-; HPC4 (C); made in house; host or cells: HEK 293-6E
T1 sequence (P11362 22-376 limits assumed): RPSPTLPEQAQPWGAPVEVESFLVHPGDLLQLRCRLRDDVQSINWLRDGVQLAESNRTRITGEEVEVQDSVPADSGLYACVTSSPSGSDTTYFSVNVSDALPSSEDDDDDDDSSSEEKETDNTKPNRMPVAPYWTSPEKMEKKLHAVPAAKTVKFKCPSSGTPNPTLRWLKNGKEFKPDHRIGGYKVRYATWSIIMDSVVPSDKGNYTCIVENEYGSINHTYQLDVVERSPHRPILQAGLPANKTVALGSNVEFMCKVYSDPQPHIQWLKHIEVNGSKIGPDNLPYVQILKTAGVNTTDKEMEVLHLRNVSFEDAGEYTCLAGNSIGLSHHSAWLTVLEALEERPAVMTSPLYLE
Procedure, shortened: (§1)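 BLI, streptavidin sensors loaded with biotinylated receptor ECD. Single-point: ~1 μM crude peptide, PBS pH7.4/0.05% Tween-20/0.01% BSA; association then dissociation in buffer. KD corrected for UPLC-CAD-determined concentration.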

FGF-R3C ECD = target: T2, FGF-R3C ECD (Homo sapiens, UniProt P22607); assay: biochemical; design: DNA constructs for the extracellular domain (ECD) of human FGF-; HPC4 (C); made in house; host or cells: HEK 293-6E
T2 sequence (P22607 23-375 limits assumed): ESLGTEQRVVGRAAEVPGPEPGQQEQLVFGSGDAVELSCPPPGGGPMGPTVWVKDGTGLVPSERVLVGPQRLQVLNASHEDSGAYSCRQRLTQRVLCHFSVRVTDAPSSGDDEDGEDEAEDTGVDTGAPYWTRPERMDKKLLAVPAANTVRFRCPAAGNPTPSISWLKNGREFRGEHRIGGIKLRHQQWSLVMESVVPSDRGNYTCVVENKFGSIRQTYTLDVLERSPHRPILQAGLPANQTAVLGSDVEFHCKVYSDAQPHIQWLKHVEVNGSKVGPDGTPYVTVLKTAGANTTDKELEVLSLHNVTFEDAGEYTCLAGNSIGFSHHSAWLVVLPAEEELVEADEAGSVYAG
Procedure, shortened: as §1

FGF-R4 ECD = target: T3, FGF-R4 ECD (Homo sapiens, UniProt P22455); assay: single concentration BLI of crude peptides; details: read-out: KD (4)
T3 construct: DNA constructs for the extracellular domain (ECD) of human FGF-; HPC4 (C); made in house; host or cells: HEK 293-6E
T3 sequence (P22455 22-369 limits assumed): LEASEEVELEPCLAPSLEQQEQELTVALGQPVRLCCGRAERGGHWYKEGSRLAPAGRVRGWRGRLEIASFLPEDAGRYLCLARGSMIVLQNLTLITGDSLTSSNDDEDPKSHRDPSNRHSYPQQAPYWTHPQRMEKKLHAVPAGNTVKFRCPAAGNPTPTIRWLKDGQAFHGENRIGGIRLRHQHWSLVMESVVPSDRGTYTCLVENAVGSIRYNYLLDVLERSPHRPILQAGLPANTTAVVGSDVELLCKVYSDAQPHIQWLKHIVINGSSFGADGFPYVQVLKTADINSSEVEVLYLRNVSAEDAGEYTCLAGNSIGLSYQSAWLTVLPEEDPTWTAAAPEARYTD
Procedure, shortened: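 Biotinylated FGF-R ECD on streptavidin biosensors was dipped into ~1 μM crude peptide in PBS pH7.4 with 0.05% Tween-20 and 0.01% BSA for association, then into buffer for dissociation, and followed by BLI. Fitted KD values were adjusted for peptide concentration measured by UPLC-CAD.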

[1] = crude T18 selection 1 (1:1:1) peptides, single concentration BLI (Table S4)

Row | Compound | Kd (FGF-R1C ECD) [µM] | Kd (FGF-R3C ECD) [µM] | Kd (FGF-R4 ECD; [1]) [µM] | Kd (FGF-R4 ECD; crude NNK peptides, single concentration BLI (Table S3)) [µM]
1 | CC[C@H](C)[C@@H]1NC(=O)[C@H](CCC(=O)O)NC(=O)[C@H](Cc2ccc(O)cc2)NC(=O)[C@H](CCC(=O)O)NC(=O)[C@H](CCCCN)NC(=O)[C@@H](NC(=O)[C@H](CCSC)NC(C)=O)CSSC[C@@H](C(=O)NCC(=O)N[C@@H](CO)C(=O)NCC(=O)N[C@@H](CO)C(=O)N[C@@H](CC(=O)O)C(=O)N[C@@H](Cc2ccc(O)cc2)C(=O)N[C@@H](CCCCN)C(=O)N[C@@H](CC(=O)O)C(=O)N[C@@H](CC(=O)O)C(=O)N[C@@H](CC(=O)O)C(=O)N[C@@H](CC(=O)O)C(=O)N[C@@H](CCCCN)C(N)=O)NC(=O)[C@H](Cc2ccc(O)cc2)NC(=O)[C@H](CCC(N)=O)NC(=O)[C@H](CC(C)C)NC(=O)[C@H](CCCCN)NC(=O)[C@H](Cc2ccc(O)cc2)NC(=O)[C@H](Cc2c[nH]c3ccccc23)NC(=O)[C@H](CC(C)C)NC1=O (Ac-MCKEYEILWYKLQYCGSGSDYKDDDDK-NH2; disulfide 2-15) | > 10 | > 10 | 0.017 | 
2 | CC[C@H](C)[C@@H]1NC(=O)[C@H](CCCCN)NC(=O)[C@@H](NC(=O)[C@H](CCSC)NC(C)=O)CSSC[C@@H](C(=O)NCC(=O)N[C@@H](CO)C(=O)NCC(=O)N[C@@H](CO)C(=O)N[C@@H](CC(=O)O)C(=O)N[C@@H](Cc2ccc(O)cc2)C(=O)N[C@@H](CCCCN)C(=O)N[C@@H](CC(=O)O)C(=O)N[C@@H](CC(=O)O)C(=O)N[C@@H](CC(=O)O)C(=O)N[C@@H](CC(=O)O)C(=O)N[C@@H](CCCCN)C(N)=O)NC(=O)[C@H](C(C)C)NC(=O)[C@H](Cc2c[nH]c3ccccc23)NC(=O)[C@H](Cc2c[nH]c3ccccc23)NC(=O)[C@H](Cc2ccccc2)NC(=O)[C@H](CCCCN)NC(=O)[C@H](Cc2c[nH]cn2)NC(=O)[C@H](CC(=O)O)NC(=O)[C@H](C(C)C)NC(=O)[C@H](Cc2ccc(O)cc2)NC(=O)[C@H](Cc2c[nH]c3ccccc23)NC1=O (Ac-MCKIWYVDHKFWWVCGSGSDYKDDDDK-NH2; disulfide 2-15) | > 10 | > 10 | 0.002 | 
3 | CC[C@H](C)[C@@H]1NC(=O)[C@H](CCC(=O)O)NC(=O)[C@H](CCCNC(=N)N)NC(=O)[C@H](CCCCN)NC(=O)[C@@H](NC(=O)[C@H](CCSC)NC(C)=O)CSSC[C@@H](C(=O)NCC(=O)N[C@@H](CO)C(=O)NCC(=O)N[C@@H](CO)C(=O)N[C@@H](CC(=O)O)C(=O)N[C@@H](Cc2ccc(O)cc2)C(=O)N[C@@H](CCCCN)C(=O)N[C@@H](CC(=O)O)C(=O)N[C@@H](CC(=O)O)C(=O)N[C@@H](CC(=O)O)C(=O)N[C@@H](CC(=O)O)C(=O)N[C@@H](CCCCN)C(N)=O)NC(=O)[C@H](Cc2ccccc2)NC(=O)[C@H](C(C)C)NC(=O)[C@H](CC(C)C)NC(=O)[C@H](Cc2c[nH]c3ccccc23)NC(=O)[C@H](Cc2ccc(O)cc2)NC(=O)[C@H](CCCCN)NC1=O (Ac-MCKREIKYWLVFCGSGSDYKDDDDK-NH2; disulfide 2-13) | > 10 | > 10 | 0.008 | 
4 | CC[C@H](C)[C@@H]1NC(=O)[C@H](CCCCN)NC(=O)[C@H](Cc2ccc(O)cc2)NC(=O)[C@H](Cc2ccc(O)cc2)NC(=O)[C@H]([C@@H](C)CC)NC(=O)[C@H](CC(C)C)NC(=O)[C@H](Cc2c[nH]cn2)NC(=O)[C@H](CCCNC(=N)N)NC(=O)[C@H](CCCCN)NC(=O)[C@@H](NC(=O)[C@H](CCSC)NC(C)=O)CSSC[C@@H](C(=O)NCC(=O)N[C@@H](CO)C(=O)NCC(=O)N[C@@H](CO)C(=O)N[C@@H](CC(=O)O)C(=O)N[C@@H](Cc2ccc(O)cc2)C(=O)N[C@@H](CCCCN)C(=O)N[C@@H](CC(=O)O)C(=O)N[C@@H](CC(=O)O)C(=O)N[C@@H](CC(=O)O)C(=O)N[C@@H](CC(=O)O)C(=O)N[C@@H](CCCCN)C(N)=O)NC(=O)[C@H](CCCNC(=N)N)NC(=O)[C@H](C)NC1=O (Ac-MCKRHLIYYKIARCGSGSDYKDDDDK-NH2; disulfide 2-14) | > 10 | 1.54 | 0.001 | 
5 | CSCC[C@H](NC(C)=O)C(=O)N[C@H]1CSSC[C@@H](C(=O)NCC(=O)N[C@@H](CO)C(=O)NCC(=O)N[C@@H](CO)C(=O)N[C@@H](CC(=O)O)C(=O)N[C@@H](Cc2ccc(O)cc2)C(=O)N[C@@H](CCCCN)C(=O)N[C@@H](CC(=O)O)C(=O)N[C@@H](CC(=O)O)C(=O)N[C@@H](CC(=O)O)C(=O)N[C@@H](CC(=O)O)C(=O)N[C@@H](CCCCN)C(N)=O)NC(=O)[C@H](Cc2ccc(O)cc2)NC(=O)[C@H](Cc2ccccc2)NC(=O)[C@H](Cc2c[nH]c3ccccc23)NC(=O)[C@H](CCCCN)NC(=O)[C@H](Cc2ccc(O)cc2)NC(=O)[C@H](Cc2c[nH]c3ccccc23)NC(=O)[C@H](CCC(N)=O)NC(=O)[C@H](CC(C)C)NC(=O)[C@H]([C@@H](C)O)NC(=O)[C@H](C)NC(=O)[C@H](Cc2ccc(O)cc2)NC(=O)[C@H](CCCCN)NC1=O (Ac-MCKYATLQWYKWFYCGSGSDYKDDDDK-NH2; disulfide 2-15) | 0.114 | 7.34 | 0.063 | 
6 | CSCC[C@H](NC(C)=O)C(=O)N[C@H]1CSSC[C@@H](C(=O)NCC(=O)N[C@@H](CO)C(=O)NCC(=O)N[C@@H](CO)C(=O)N[C@@H](CC(=O)O)C(=O)N[C@@H](Cc2ccc(O)cc2)C(=O)N[C@@H](CCCCN)C(=O)N[C@@H](CC(=O)O)C(=O)N[C@@H](CC(=O)O)C(=O)N[C@@H](CC(=O)O)C(=O)N[C@@H](CC(=O)O)C(=O)N[C@@H](CCCCN)C(N)=O)NC(=O)[C@H](Cc2c[nH]c3ccccc23)NC(=O)[C@H](CC(C)C)NC(=O)[C@H](CCCNC(=N)N)NC(=O)[C@H](Cc2ccc(O)cc2)NC(=O)[C@H](CC(C)C)NC(=O)[C@H](Cc2c[nH]c3ccccc23)NC(=O)[C@H](CC(C)C)NC(=O)[C@H](CC(=O)O)NC(=O)[C@H](CCCCN)NC(=O)[C@H](CO)NC(=O)[C@H](Cc2ccc(O)cc2)NC(=O)[C@H](CCCCN)NC1=O (Ac-MCKYSKDLWLYRLWCGSGSDYKDDDDK-NH2; disulfide 2-15) | > 10 | > 10 | 0.002 | 
7 | CC[C@H](C)[C@@H]1NC(=O)[C@H](CO)NC(=O)[C@H]([C@@H](C)CC)NC(=O)[C@H](CC(C)C)NC(=O)[C@@H](NC(=O)[C@H](CCSC)NC(C)=O)CSSC[C@@H](C(=O)NCC(=O)N[C@@H](CO)C(=O)NCC(=O)N[C@@H](CO)C(=O)N[C@@H](CC(=O)O)C(=O)N[C@@H](Cc2ccc(O)cc2)C(=O)N[C@@H](CCCCN)C(=O)N[C@@H](CC(=O)O)C(=O)N[C@@H](CC(=O)O)C(=O)N[C@@H](CC(=O)O)C(=O)N[C@@H](CC(=O)O)C(=O)N[C@@H](CCCCN)C(N)=O)NC(=O)[C@H](Cc2c[nH]cn2)NC(=O)[C@H](CCCCN)NC(=O)[C@H](CC(C)C)NC(=O)[C@H](C(C)C)NC(=O)[C@H](CCCCN)NC(=O)[C@H](Cc2ccc(O)cc2)NC1=O (Ac-MCLISIYKVLKHCGSGSDYKDDDDK-NH2; disulfide 2-13) | > 10 | > 10 |  | > 10
8 | CSCC[C@H](NC(C)=O)C(=O)N[C@H]1CSSC[C@@H](C(=O)NCC(=O)N[C@@H](CO)C(=O)NCC(=O)N[C@@H](CO)C(=O)N[C@@H](CC(=O)O)C(=O)N[C@@H](Cc2ccc(O)cc2)C(=O)N[C@@H](CCCCN)C(=O)N[C@@H](CC(=O)O)C(=O)N[C@@H](CC(=O)O)C(=O)N[C@@H](CC(=O)O)C(=O)N[C@@H](CC(=O)O)C(=O)N[C@@H](CCCCN)C(N)=O)NC(=O)[C@H](Cc2c[nH]cn2)NC(=O)[C@H](Cc2c[nH]c3ccccc23)NC(=O)[C@H](Cc2ccc(O)cc2)NC(=O)[C@@H]2CCCN2C(=O)[C@H](CCC(=O)O)NC(=O)[C@H](Cc2ccc(O)cc2)NC(=O)[C@H](CC(C)C)NC(=O)[C@H](Cc2c[nH]cn2)NC(=O)[C@H](CCCNC(=N)N)NC(=O)[C@H](CC(C)C)NC1=O (Ac-MCLRHLYEPYWHCGSGSDYKDDDDK-NH2; disulfide 2-13) | > 10 | > 10 | > 10 | 
